This note sets out measurements from patent US9062061B2, “Compound having PARP inhibitory activity” (SANTEN PHARMACEUTICAL CO., LTD., priority 2011, dated 2015).

Where two headings read alike, the source gives them in different places.

In general, inhibition refers to the percentage by which the read-out fell short of the control.

Experiment [1] addresses T1, human recombinant PARP1 (Homo sapiens, UniProt P09874).
T1 construct: purchased Trevigen 4677-096-K
Nature of the experiment: PARP inhibitory activity measurement test (Universal Colorimetric PARP Assay kit, Trevigen). The class given is biochemical. As to conditions: compound concentration: 10 μM, read-out: PARP1 inhibition rate (%). How it is done:
For evaluating PARP inhibitory activity of the present compound, inhibitory activity of each test compound against human recombinant PARP 1 was measured using Universal Colorimetric PARP Assay kit with Histone-Coated Strip Wells (Cat No.: 4677-096-K) available from Trevigen. The test was conducted according to the procedure in the instruction attached to this kit. The concrete operation will be described below.
After dissolving the test compound in dimethyl sulfoxide, the solution was diluted with a PARP buffer attached to the kit to prepare a 50 μM test compound solution.
In each well of a histone-coated 96-well plate, 10 μL of the test compound solution (50 μM), 15 μL of human recombinant PARP1 (33.3 Unit/mL) and 25 μL of PARP cocktail (containing activated DNA and biotinated NAD) were added, and incubated at room temperature for 1 hour (final reaction amount: 50 μL). Each well was washed twice with 200 μL of 0.1% Triton-X-containing Dulbecco's phosphate buffer, and further washed twice with 200 μL of Dulbecco's phosphate buffer, and then 50 μL of Strep-HRP was added, followed by incubation at room temperature for 1 hour. Each well was washed twice with 200 μL of 0.1% Triton-X-containing Dulbecco's phosphate buffer, and further washed twice with 200 μL of Dulbecco's phosphate buffer, and then 50 μL of TACS-Sapphire coloriometric substrate was added, followed by incubation at room temperature for 15 minutes. After stopping the reaction by adding 50 μL of 0.2 M HCl, absorbance at 450 nm (Abs 450) was measured by a microplate reader. The number of examples in each group was 1 to 2.
Using a well into which dimethyl sulfoxide and a PARP buffer were added in place of the test compound solution and human recombinant PARP1, the above operation was conducted as a negative control.
Using a well into which a PARP buffer containing dimethyl sulfoxide was added in place of the test compound solution, the above operation was conducted as a positive control.
PARP1 inhibition rate (%) was calculated according to the following Formula 1. PARP1 inhibition rate(%)=(AbsB−AbsX)/(AbsB−AbsA)×100 [Formula 1]
AbsA: absorbance of negative control (Abs 450)
AbsB: absorbance of positive control (Abs 450)
AbsX: absorbance of test compound-treated group (Abs 450)

The test system of experiment [2] is rat thrombin-induced retinal vascular hyperpermeability model. Nature of the experiment: Retinal vascular hyperpermeability inhibitory activity in rat thrombin model (intravitreal protein concentration, Bradford method). It counts as in vivo. The note with it: thrombin 3 U/eye intravitreal; test compound 100 mg/kg orally 1.5 hours before and 22.5 hours after thrombin; Brown Norway male rats. How it is done:
For examining the influence of the present compound on retinal vascular hyperpermeability, the retinal vascular hyperpermeability inhibitory activity of the test compound was evaluated using a rat thrombin-induced retinal vascular hyperpermeability model. The rat thrombin-induced retinal vascular hyperpermeability model is an animal in which retinal vascular permeability is increased by administration of thrombin, and is used as a model animal for diabetic retinopathy, diabetic macular edema and so on (IONS, 2000, 41(4), S18, 92).
A thrombin liquid preparation was intravitreally administered to 8-week old Brown Norway male rat at a dose of 3 U/eye, and the vitreous body was collected on the next day of administration, and intravitreal protein concentration was measured by the Bradford method. A normal control group received intravitreal administration of DPBS. The number of examples in each group was 4 rats (7-8 eyes).
(Administration Method) • Test compound-administered group: A solution of each test compound suspended in 1% (w/v) methylcellulose aqueous solution was orally administered in a dose of 100 mg/kg, 1.5 hours before and 22.5 hours after thrombin administration. • Normal control group and vehicle-administered group
According to the following Formula 3, retinal vascular hyperpermeability inhibition rate was calculated. […]

Experiment [3] concerns rat N-methyl-N-nitrosourea (MNU)-induced retinal degeneration model. Nature of the experiment: Retinal degeneration inhibitory activity in rat MNU-induced model (retinal volume by OCT). The class given is in vivo. As to conditions: po, 168 h, seventh day, Brown Norway male rats, read-out: Retinal volume reduction inhibition rate (%); for inhibition in vivo at 10 mg/kg: test compound 10 mg/kg orally once 30 minutes before MNU. On the procedure:
For examining influence of the present compound on the retinal degeneration, retinal degeneration inhibitory activity of test compound was evaluated, using a rat N-methyl-N-nitrosourea (hereinafter, “MNU”)-induced retinal degeneration model. The rat MNU-induced retinal degeneration model is a model animal in which cell death of retinal photoreceptor cell is induced by administration of MNU which is a DNA alkylation agent, and is generally used as a model animal for chorioretinal degenerative diseases such as retinitis pigmentosa (Exp. Eye. Res., 84(2), 285-292 (2007)).
By the previous day of MNU administration, retinal volumes of 8-week-old Brown Norway male rats were measured by using optical coherence tomography (OCT) (product of Carl Zeiss, model number: STRATUS OCT Model 3000). An MNU administration liquid was intraperitoneally administered to the rats at a dose of 50 to 60 mg/kg, and on the seventh day after administration, retinal volumes were measured by using OCT. The normal control group underwent no treatment, and retinal volumes were measured on the same day as the MNU administration group. The number of examples in each group was 4 rats (8 eyes).
(Administration Method) • Test compound-administered group: A solution of each test compound suspended in 1% (w/v) methylcellulose aqueous solution was orally administered once 30 minutes before MNU administration at a dose of 1 to 30 mg/kg. • Normal control group and vehicle-administered group: 1% (w/v) methylcellulose aqueous solution was orally administered once 30 minutes before MNU administration.
According to the following Formula 2, retinal volume reduction inhibition rate (%) was calculated. Retinal volume reduction inhibition rate(%)=(RVX-pre/RVX-post−RVB-pre/RVB-post)/(RVA-pre/RVA-post−RVB-pre/RVB-post)×100 [Formula 2]
RVA-pre: retinal volume before MNU administration of normal control group (mm^3)
RVA-post: retinal volume on the seventh day after MNU administration of normal control group (mm^3)
RVB-pre: retinal volume before MNU administration of vehicle-administered group (mm^3)
RVB-post: retinal volume on the seventh day after MNU administration of vehicle-administered group (mm^3)
RVX-pre: retinal volume before MNU administration of test compound-administered group (mm^3)
RVX-post: retinal volume on the seventh day after MNU administration of test compound-administered group (mm^3)

T1 sequence (P09874 whole entry): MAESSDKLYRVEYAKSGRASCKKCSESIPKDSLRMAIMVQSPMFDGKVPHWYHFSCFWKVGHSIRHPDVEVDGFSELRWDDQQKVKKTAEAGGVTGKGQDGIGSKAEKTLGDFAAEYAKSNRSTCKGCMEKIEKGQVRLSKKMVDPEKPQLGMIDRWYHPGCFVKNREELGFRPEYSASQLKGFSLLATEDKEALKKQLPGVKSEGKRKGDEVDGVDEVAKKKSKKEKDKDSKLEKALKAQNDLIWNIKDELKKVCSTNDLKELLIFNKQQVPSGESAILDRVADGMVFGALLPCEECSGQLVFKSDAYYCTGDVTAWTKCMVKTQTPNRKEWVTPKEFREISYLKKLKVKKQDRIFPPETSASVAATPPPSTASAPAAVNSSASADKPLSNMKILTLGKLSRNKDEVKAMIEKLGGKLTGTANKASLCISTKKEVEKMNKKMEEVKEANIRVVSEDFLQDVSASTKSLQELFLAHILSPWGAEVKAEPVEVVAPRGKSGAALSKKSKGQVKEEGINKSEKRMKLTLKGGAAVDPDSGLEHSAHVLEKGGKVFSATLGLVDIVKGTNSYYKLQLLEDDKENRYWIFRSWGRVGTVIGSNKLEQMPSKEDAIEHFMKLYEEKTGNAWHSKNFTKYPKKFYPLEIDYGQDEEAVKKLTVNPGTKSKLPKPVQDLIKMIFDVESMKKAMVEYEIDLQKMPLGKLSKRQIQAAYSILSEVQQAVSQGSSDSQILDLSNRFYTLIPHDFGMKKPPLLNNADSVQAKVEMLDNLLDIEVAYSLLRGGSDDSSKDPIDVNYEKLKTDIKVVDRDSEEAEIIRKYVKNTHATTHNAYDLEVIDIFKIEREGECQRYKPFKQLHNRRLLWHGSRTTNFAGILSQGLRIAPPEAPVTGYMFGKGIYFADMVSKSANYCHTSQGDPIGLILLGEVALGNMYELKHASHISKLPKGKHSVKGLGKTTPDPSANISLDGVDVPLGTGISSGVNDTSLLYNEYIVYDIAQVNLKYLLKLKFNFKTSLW

With `O=c1[nH]c2cc(CN3CCN(c4ccc(F)cc4)CC3)cn2c2ccccc12` [Compound 2-1, 2-[4-(4-Fluorophenyl)piperazin-1-ylmethyl]pyrrolo[1,2-a]quinazolin-5 (4H)-one], the inhibition at 10 µM in experiment [1] amounted to 100%. In experiment [2], the “Retinal vascular hyperpermeability inhibition rate (%)” value was found to be 63%. In addition, in experiment [3] (MNU 60 mg/kg i.p.), the inhibition in vivo at 10 mg/kg stood at 65%.
For the molecule `O=c1[nH]c2cc(CN3CCC(c4ccccc4)CC3)cn2c2ccccc12` [Compound 2-5, 2-(4-Phenylpiperidin-1-ylmethyl)pyrrolo[1,2-a]quinazolin-5(4H)-one], in experiment [1], the inhibition at 10 µM came to 96%. Besides, in experiment [3] (MNU 50 mg/kg i.p.), the inhibition in vivo at 10 mg/kg was determined as 16%.
For `O=c1[nH]c2cc(CN3CC=C(c4ccc(Cl)cc4)CC3)cn2c2ccccc12` [Compound 2-7, 2-[4-(4-Chlorophenyl)-1,2,3,6-tetrahydropyridine-1-ylmethyl]pyrrolo[1,2-a]quinazolin-5(4H)-one], the inhibition at 10 µM in experiment [1] turned out to be 99%. Moreover, the inhibition in vivo at 10 mg/kg in experiment [3] (MNU 50 mg/kg i.p.) amounted to 69%.
For `O=c1[nH]c2cc(CN3CC=C(c4ccc(F)cc4)CC3)cn2c2ccccc12` [Compound 2-8, 2-[4-(4-Fluorophenyl)-1,2,3,6-tetrahydropyridin-1-ylmethyl]pyrrolo[1,2-a]quinazolin-5(4H)-one] the same measures were 100% and 39%.
For `O=c1[nH]c2cc(CN3CCN(c4ccccc4F)CC3)cn2c2ccccc12` [Compound 2-9, 2-[4-(2-Fluorophenyl)piperazin-1-ylmethyl]pyrrolo[1,2-a]quinazolin-5(4H)-one] the same measures were 99% and 25%.
On to `O=c1[nH]c2cc(CN3CCN(c4ccc(Cl)cc4)CC3)cn2c2ccccc12` [Compound 2-12, 2-[4-(4-Chlorophenyl)piperazin-1-ylmethyl]pyrrolo[1,2-a]quinazolin-5(4H)-one], for which the inhibition at 10 µM in experiment [1] is 100%. Moreover, in experiment [3] (MNU 60 mg/kg i.p., test compound 30 mg/kg orally once 30 minutes before MNU), the inhibition in vivo at 30 mg/kg worked out at 47%.
Consider `O=c1[nH]c2cc(CN3CCC(c4ccc(F)cc4)CC3)cn2c2ccccc12` [Compound 2-14, 2-[4-(4-Fluorophenyl)piperidin-1-ylmethyl]pyrrolo[1,2-a]quinazolin-5(4H)-one], for which, in experiment [1], the inhibition at 10 µM is 100%. In addition, the inhibition in vivo at 10 mg/kg in experiment [3] (MNU 50 mg/kg i.p.) amounted to 33%.
The like results for `COc1ccc(N2CCN(Cc3cc4[nH]c(=O)c5ccccc5n4c3)CC2)cc1` [Compound 2-16, 2-[4-(4-Methoxyphenyl)piperazin-1-ylmethyl]pyrrolo[1,2-a]quinazolin-5(4H)-one] were, in that order, 100% and 29%.
For `O=c1[nH]c2cc(CN3CCN(c4ccccn4)CC3)cn2c2ccccc12` [Compound 2-17, 2-[4-(Pyridin-2-yl)piperazin-1-ylmethyl]pyrrolo[1,2-a]quinazolin-5(4H)-one] the same measures were 100% and 48%.
The like results for `O=c1[nH]c2cc(CN3CCN(c4ccc(Cl)cn4)CC3)cn2c2ccccc12` [Compound 2-30, 2-[4-(5-Chloropyridin-2-yl)piperazin-1-ylmethyl]pyrrolo[1,2-a]quinazolin-5(4H)-one] were, in that order, 100% and 72%.
Consider `O=c1[nH]c2cc(CN3CCN(c4ccc(F)cc4F)CC3)cn2c2ccccc12` [Compound 2-35, 2-[4-(2,4-Difluorophenyl)piperazin-1-ylmethyl]pyrrolo[1,2-a]quinazolin-5(4H)-one], for which the inhibition at 10 µM in experiment [1] was determined as 100%. In addition, in experiment [3] (MNU 50 mg/kg i.p.), the inhibition in vivo at 10 mg/kg amounted to 61%.
Turning to `COc1cc(F)ccc1N1CCN(Cc2cc3[nH]c(=O)c4ccccc4n3c2)CC1` [Compound 2-39, 2-[4-(4-Fluoro-2-methoxyphenyl)piperazin-1-ylmethyl]pyrrolo[1,2-a]quinazolin-5(4H)-one], the inhibition at 10 µM in experiment [1] was found to be 100%. The inhibition in vivo at 10 mg/kg in experiment [3] (MNU 50 mg/kg i.p.) came out at 84%.
The like results for `O=c1[nH]c2cc(CN3CCN(c4ccc5c(c4)OCO5)CC3)cn2c2ccccc12` [Compound 2-40, 2-[4-(1,3-Benzodioxol-5-yl)piperazin-1-ylmethyl]pyrrolo[1,2-a]quinazolin-5(4H)-one] were, in that order, 100% and 88%.
For `O=c1[nH]c2cc(CN3CCN(c4ccccn4)CC3)cn2c2ccc(F)cc12` [Compound 2-44, 7-Fluoro-2-[4-(pyridin-2-yl)piperazin-1-ylmethyl]pyrrolo[1,2-a]quinazolin-5(4H)-one] the same measures were 98% and 81%.
Consider `O=c1[nH]c2cc(CN3CCN(c4ccc(F)cc4)CC3)cn2c2ccc(F)cc12` [Compound 2-45, 7-Fluoro-2-[4-(4-fluorophenyl)piperazin-1-ylmethyl]pyrrolo[1,2-a]quinazolin-5(4H)-one], for which the inhibition at 10 µM in experiment [1] is 100%. Further, the inhibition in vivo at 1 mg/kg in experiment [3] (MNU 50 mg/kg i.p., test compound 1 mg/kg orally once 30 minutes before MNU) was 81%.
In the case of `[2H]C([2H])(c1cc2[nH]c(=O)c3ccccc3n2c1)N1CCN(c2ccc(F)cc2)CC1` [Compound 4-1, 2-[1-[4-(4-Fluorophenyl)piperazin-1-yl]-1,1-dideuteriomethyl]pyrrolo[1,2-a]quinazolin-5(4H)-one], the inhibition at 10 µM in experiment [1] was determined as 100%. In addition, the inhibition in vivo at 10 mg/kg in experiment [3] (MNU 50 mg/kg i.p.) worked out at 94%.
